{
  "source": "patent US8575116B1",
  "about": "“Polyacetylenic compounds for protecting against pancreatic islet atrophy” (Academia Sinica, priority 2010, dated 2013)",
  "key": {"STZ-treated C57BL mice": {"system": "STZ-treated C57BL mice", "test": "Blood glucose in STZ-treated (β-cell-depleted) C57BL mice", "assay_type": "in vivo, mouse", "details": "cytopiloyne oral 0.1, 0.5 and 2.5 mgkg^−1; insulin i.p. 2.5 IUkg^−1", "experimental": "FIGS. 3A-C show cytopiloyne-mediated insulin release depends on pancreatic islet cells. (A) Rat pancreatic islet cells were incubated with glucose-free KRB buffer containing vehicle or cytopiloyne at 1.5, 3, 7, 14, 28 and 42 μM (FIG. 3A-i). Similarly, rat pancreatic islet cells were incubated with KRB buffer containing vehicle, glimepiride (GLM, 10 μM) or cytopiloyne at 1.5, 3, 7, 14, 28 and 42 μM in the presence of 3.3 mM glucose (LG, FIG. 3A-ii) or 16.7 mM glucose (HG, FIG. 3A-iii). The insulin levels were determined using an insulin ELISA kit. The data presented as mean±SEM of 3 independent experiments. (B) Fed C57BL mice, which had already received an injection of STZ, were administered with an oral dose of vehicle, cytopiloyne (CP, 0.1, 0.5 and 2.5 mgkg^−1), and an intraperitoneal injection of insulin (Ins, 2.5 IUkg^−1). Blood sugar levels in the STZ-treated mice were determined using a glucometer. […] Blood sugar levels in the STZ-treated mice were determined using a glucometer. All the results from 3 independent experiments are expressed as mean±SEM, and P<0.05 was considered to be statistically significant (*). […]\nTo deplete pancreatic β-cells in mice, 6-week-old C57BL females (NLAC, Taipei, Taiwan) were intraperitoneally injected with STZ at 200 mgkg^−1. […] Blood glucose levels were monitored for 4 h. […] Blood glucose levels in the mice were monitored from 0 to 4 h after insulin injection."}, "[1]": {"system": "rat pancreatic islet cells", "test": "Insulin release from rat pancreatic islets (ELISA)", "assay_type": "cell-based", "experimental": "FIGS. 3A-C show cytopiloyne-mediated insulin release depends on pancreatic islet cells. (A) Rat pancreatic islet cells were incubated with glucose-free KRB buffer containing vehicle or cytopiloyne at 1.5, 3, 7, 14, 28 and 42 μM (FIG. 3A-i). Similarly, rat pancreatic islet cells were incubated with KRB buffer containing vehicle, glimepiride (GLM, 10 μM) or cytopiloyne at 1.5, 3, 7, 14, 28 and 42 μM in the presence of 3.3 mM glucose (LG, FIG. 3A-ii) or 16.7 mM glucose (HG, FIG. 3A-iii). The insulin levels were determined using an insulin ELISA kit. The data presented as mean±SEM of 3 independent experiments. (B) Fed C57BL mice, which had already received an injection of STZ, were administered with an oral dose of vehicle, cytopiloyne (CP, 0.1, 0.5 and 2.5 mgkg^−1), and an intraperitoneal injection of insulin (Ins, 2.5 IUkg^−1). Blood sugar levels in the STZ-treated mice were determined using a glucometer. (C) C57BL mice, which had already received STZ, were orally administered with a single dose of vehicle, cytopiloyne (CP, 0.5 and 2.5 mgkg^−1), glimepiride (GLM, 2.5 mgkg^−1), or metformin (60 mgkg^−1), followed by an intraperitoneal injection with insulin (Ins). Blood sugar levels in the STZ-treated mice were determined using a glucometer. All the results from 3 independent experiments are expressed as mean±SEM, and P<0.05 was considered to be statistically significant (*). The number of mice (n) is indicated in parentheses.\nGlucose levels in mouse blood samples were measured using an Elite® glucometer (Bayer, Pittsburgh, Pa., USA). Insulin levels in blood samples or islet cell supernatants were determined by ELISA assays (Mercodia, Uppsala, Sweden). The levels of glycosylated HbA1c in mouse blood samples were measured using DCA 2000 analyzer (Bayer, Pittsburgh, Pa., USA).\nPancreatic islets (10 isletsml^−1) from fasted male Wistar rats were incubated with KRB buffer containing vehicle (1 μl DMSO per ml KRB buffer), glimepiride or cytopiloyne in the absence or presence of glucose for 30 min. The KRB buffer was then collected for ELISA assays."}, "3T3-L1 cells": {"system": "3T3-L1 cells", "assay_type": "cell-based, mouse", "details": "differentiating 3T3-L1 cells; glimepiride 10 μM, rosiglitazone 1 μM, cytopiloyne 50 μM"}},
  "data": [
    {"smiles": "CC#CC#CC#CC#CCCC(CO)O[C@@H]1O[C@H](CO)[C@@H](O)[C@H](O)[C@H]1O", "note": "(stereo partly drawn) [cytopiloyne, 2-β-D-glucopyranosyloxy-1-hydroxytrideca-5,7,9,11-tetrayne]", "values": [
      {"measurement": "reduction of hyperglycemia / blood glucose in β-cell-depleted mice", "setting": "STZ-treated C57BL mice", "value": "lost its ability in regulating both responses"},
      {"measurement": "insulin secretion from rat islets", "setting": "[1]; 16.7 mM glucose KRB, also glucose-free and low glucose media", "value": "enhanced insulin secretion in high glucose medium"},
      {"measurement": "insulin secretion in the absence of glucose", "setting": "[1]; high dose, glucose-free KRB buffer", "value": "can still stimulate insulin secretion to some extent even in the absence of glucose"},
      {"measurement": "insulin release in pancreatic islets, glucose dependence", "setting": "[1]; low dose (e.g., 3 μM), 0, 3.3 and 16.7 mM glucose", "value": "simulates insulin release in pancreatic islets in a glucose-dependent manner"},
      {"measurement": "lipid accumulation (lipid droplets, Oil red O)", "setting": "3T3-L1 cells", "value": "same basal level of lipid droplets as the control"}
    ]}
  ]
}
